These are literature values, as cited in patent publication US20020004584A1, “HIV immune adjuvant therapy” (priority 2000, published 2002).

The conditions of data set [1]: in vivo.
In another data set the test system is HIV-1. The note with it: preclinical studies.
The conditions of data set [2]: in vivo. The source holds these as a separate data set.

Each structure is given as a SMILES string.

Turning to `CC(C)c1nc(CN(C)C(=O)N[C@H](C(=O)N[C@@H](Cc2ccccc2)C[C@H](O)[C@H](Cc2ccccc2)NC(=O)OCc2cncs2)C(C)C)cs1` [Ritonavir, ritonavir], in data set [1], the adverse effects entry is reported as “troublesome adverse effects”. For `NC(=O)NO` [Hydroxyurea], the “effect on the activity of didanosine” value in the data set with HIV-1 is listed as “synergistic effect”. Take `CC(C)(C)NC(=O)[C@@H]1C[C@@H]2CCCC[C@@H]2CN1C[C@@H](O)[C@H](Cc1ccccc1)NC(=O)[C@H](CC(N)=O)NC(=O)c1ccc2ccccc2n1` [saquinavir]: the bioavailability result in data set [2] is recorded as “poor bioavailability”.
